This note sets out measurements from US20190365771A1, “APILIMOD COMPOSITIONS AND METHODS FOR USING SAME IN THE TREATMENT OF ALZHEIMER'S DISEASE” (AI Therapeutics, Inc., priority 2016, published 2019).

The test system of test [1] is Hela cells transiently transfected with APP Swedish/Indiana double mutant (APPSw-I). Kind of test: Ab 40 ELISA of supernatants of Hela cells transfected with APPSw-I construct. Format: cell-based, human. The conditions noted are these: treated two days with 10000, 1000, 100, 1 nM, FIG. 1. An excerpt: (§1) The Amyloid precursor protein (APP) can be processed by proteases, first by beta secretase (BACE1) then followed by gamma secretase to generate peptide fragments including sizes of 40 and 42 amino acids named abeta (Ab), e.g. Ab 1-40 and Ab 1-42. Several familial Alzheimer disease-related mutations and truncated mutants in the APP gene have been described in the investigation of APP processing to Ab in vitro and in vivo. […] Briefly, two constructs were used to generate Ab:(1) APP Swedish/Indiana double mutant (APPSw-I) in the 695 amino acid APP construct combines the Swedish mutant APP K670N, M671L (Mullan M et al, A pathogenic mutation for probable Alzheimer's disease in the APP gene at the N-terminus of beta-amyloid. Nat Genet., 1992 August; 1(5):345-7) and the Indiana mutation APP V717F (Suzuki N et al, An increased percentage of long amyloid beta protein secreted by familial amyloid beta protein precursor (beta APP717) mutants. Science, 1994 May 27; 264(5163): 1336-40); and (2) C99 APP truncated mutant (C99) fragment encoding the last 99-aa of APP 695, this construct mimics the BACE1 cleaved APP at the major Asp+1 site of Aβ to generate C99. […]
(In general: In an ELISA, binding on a coated surface is turned into a signal by an enzyme label.)

Test [2] deals with Hela cells transiently transfected with C99 APP truncated mutant (C99). Kind of test: Ab 40 ELISA of supernatants of Hela cells transfected with C99 construct. The conditions noted are these: treated two days with 10000, 1000, 100, 1 nM, FIG. 2. The format is cell-based, human.
Description: as §1

Turning to `Cc1cccc(/C=N/Nc2cc(N3CCOCC3)nc(OCCc3ccccn3)n2)c1` [apilimod], the “Ab concentration in cell culture supernatant” value in test [1] and in test [2] was “dose dependent decrease of Ab” throughout.
